# pKi: −log10 of the molar value.
# Biological target: T1, 17betaHSD1 (Homo sapiens, UniProt P14061)
# T1 sequence (P14061 1-328): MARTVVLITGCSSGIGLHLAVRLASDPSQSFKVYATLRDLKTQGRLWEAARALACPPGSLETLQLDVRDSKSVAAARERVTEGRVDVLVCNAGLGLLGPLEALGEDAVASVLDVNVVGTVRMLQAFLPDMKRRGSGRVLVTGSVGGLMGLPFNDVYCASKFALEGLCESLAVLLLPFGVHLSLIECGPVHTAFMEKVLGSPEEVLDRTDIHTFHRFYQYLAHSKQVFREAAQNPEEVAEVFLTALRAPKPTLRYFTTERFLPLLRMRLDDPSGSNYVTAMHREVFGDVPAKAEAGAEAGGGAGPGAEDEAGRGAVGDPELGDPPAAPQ
# Test: screen of gossypol related compounds against 17betaHSD1 (enzyme activity)
# Assay type: biochemical
# Conditions: for pKi: read-out: inhibition constant
# Procedure: Seven gossypol related compounds were screened against 17betaHSD1. […] Four gossypol derivatives, in which the aldehyde functional group is modified, were tested. The peri-acylated nitrites, gossylic nitrile diacetate and gossylic nitrile divalerate, represent compounds in which the aldehyde group is [drawing 13] converted to a nitrile, and the peri hydroxyl of gossypol is derivatized.
# Gossylic iminolactone and gossylic lactone were the most promising compounds, producing 80-90% reduction in enzyme activity. The inhibition constants for gossylic lactone and gossylic iminolactone were determined to be 2.2 and 4.3 uM respectively.
SMILES,pKi,also measured
"Cc1cc2c(C(C)C)c(O)c(O)c3c2c(c1-c1c(C)cc2c(C(C)C)c(O)c(O)c4c2c1OC4=N)OC3=N [Gossylic iminolactone, gossylic iminolactone]",5.37,–
"CC(=O)Oc1c(-c2c(C)cc3c(C(C)C)c(O)c(O)c(C#N)c3c2OC(C)=O)c(C)cc2c(C(C)C)c(O)c(O)c(C#N)c12 [Gossylic nitrile diacetate, gossylic nitrile diacetate]",–,reduction in enzyme activity (concentrations not given): 13%
Cc1cc2c(C(C)C)c(O)c(O)c3c2c(c1-c1c(C)cc2c(C(C)C)c(O)c(O)c4c2c1OC4=O)OC3=O [gossylic lactone],5.66,–
CCCCC(=O)Oc1c(-c2c(C)cc3c(C(C)C)c(O)c(O)c(C#N)c3c2OC(=O)CCCC)c(C)cc2c(C(C)C)c(O)c(O)c(C#N)c12 [gossylic nitrile divalerate],–,reduction in enzyme activity (in words) (concentrations not given): no reduction
